# Laboratory results published in article PMC10292217, “Gene-nutrient interactions that impact magnesium homeostasis increase risk for neural tube defects in mice exposed to dolutegravir” (Frontiers in Cell and Developmental Biology, 2023).
# Read-outs that look alike come from different tables or passages of the source.
# Legend:
# C57BL/6J mice = test: DTG-NTD susceptibility, embryo phenotyping on GD 9.5, C57BL/6J dams; type: in vivo, mouse
# Source text: Breeding colonies and experimental mice were housed in Thoren micro-isolator cages with autoclaved corncob bedding and maintained on a 12-h light-dark cycle in climate-controlled AAALAC-accredited animal facilities at Creighton University. Mice were given ad libitum access to autoclaved water and pelleted irradiated rodent chow. For timed matings, nulliparous female mice were placed with a male overnight (1 male:2-3 females). The presence of a vaginal plug the next morning was considered GD 0.5. Plugged females were weighed, placed into a separate cage, and randomly assigned to a treatment group. All animal procedures were performed in accordance with the Public Health Service (PHS) policy on Humane Care and Use of Laboratory Animals and approved by the Creighton University Institutional Animal Care and Use Committee (IACUC).
# Dolutegravir (CAS 1051375-16-6, GSK1349572) was purchased from MedKoo Biosciences (Morrisville, NC). Pregnant mice were dosed with vehicle (dimethylsulfoxide: Solutol®: 50 mM N-methylglucamine in 3% mannitol [1:1:8, v:w:v]) ([Moss et al., 2015]) or DTG (500 mg/kg or 750 mg/kg) by daily oral gavage beginning on GD 0.5 and continuing until the day of sacrifice (GD 9.5). All treatments were administered in a volume of 0.1 mL/10 g bodyweight (bwt).
# The SWV and LM/Bc breeding colonies have been maintained on Envigo Rodent Chow #8904 (a soy protein-based irradiated diet) for >20 years. C3H/HeJ and C57BL/6J mice (6–10 weeks old) were immediately placed on Envigo #8904 upon arrival at Creighton University and were maintained on this diet for a minimum of 1 month prior to analysis of basal plasma and urine cations. The National Research Council (NRC) estimate for the minimum Mg^2+ requirement in adult mice is […] of diet (0.05%). Magnesium in standard rodent diets ranges between […]; the Envigo #8904 soy diet contains .3% Mg^2+ by weight ([…] the NRC requirement) and was therefore considered a ‘high’ Mg^2+ diet. Sources of Mg^2+ in the soy diet include magnesium oxide (∼20%) and Mg^2+ found naturally in grain ingredients (∼80%); it was therefore not possible to remove Mg^2+ to create a soy-based version that was Mg^2+ deficient. To test the hypothesis that low maternal plasma Mg^2+ prior to conception would increase susceptibility to DTG-induced NTDs, it was necessary to switch to casein-based purified ingredient diets with defined levels of Mg^2+ added back. The following casein-based purified ingredient diets were selected as experimental diets: TD.120,574 high Mg^2+ diet (.3% Mg^2+ oxide added to match the .3% high Mg^2+ soy-based diet); TD.98341 control Mg^2+ diet with 0.05% Mg oxide added back to match the NRC requirement; and TD.93106 Mg^2+-deficient diet (<.003%, no Mg^2+ added back). The purified casein diets met or exceeded the NRC requirements for all other minerals and vitamins, including folic acid (Supplementary Table S1: Diet Comparison). Thus, the 4 experimental diets were as follows: 1) high Mg^2+ (.3%) soy diet; 2) high Mg^2+ ([…]) casein diet; 3) control Mg^2+ (.05%) casein diet; and 4) deficient Mg^2+ (<.003%) casein diet. […] Our initial DTG teratology studies were performed in mice on the high Mg^2+ soy diet. However, our objective in the second set of experiments was to reduce pre-conception plasma Mg^2+ levels prior to DTG exposure. To accomplish this objective, weaned female mice were placed on either the high Mg^2+ casein diet or one of the 2 casein-based experimental diets with reduced Mg^2+ (control or deficient) for a minimum of 2 weeks. After this minimum period of acclimation to the experimental casein-based diets, blood and urine samples were collected for Inductively Coupled Plasma Mass Spectrometry (ICP-MS) determination of Mg^2+ (and other cations).
# Pregnant dams were anesthetized with isoflurane and sacrificed by cervical dislocation on GD 9.5. […]
# [1] = cited from earlier work
# Whole rat embryos = test system: Whole rat embryos; set-up: method as in Posobiec et al., 2021; conditions: exposure GD 9-11; concentrations approx. 2 times plasma concentration at MRHD; ref Posobiec et al., 2021; cited from earlier work
# [2] = test system: Madin-Darby canine kidney II cells; set-up: method as in Zamek-Gliszczynski et al., 2019; conditions: ref Zamek-Gliszczynski et al., 2019; cited from earlier work
# FOLR1 [3] = test system: FOLR1; set-up: method as in Cabrera et al., 2019; conditions: human placental trophoblast cells; ref Cabrera et al., 2019; cited from earlier work
# FOLR1 [4] = test system: FOLR1; set-up: method as in Gilmore et al., 2022; conditions: human choriocarcinoma cells; ref Gilmore et al., 2022; cited from earlier work
# hESC morphogenesis model = test system: hESC morphogenesis model; set-up: method as in Kirkwood-Johnson et al., 2021; conditions: ref Kirkwood-Johnson et al., 2021; cited from earlier work
# rats = conditions: 2020, cited from earlier work
# [5] = high Mg2+ (0.3%) soy diet, DTG 750 mg/kg/d oral GD 0.5-GD 9.5, average % (SD)
# [6] = high Mg2+ (0.3%) soy diet, DTG 750 mg/kg/d oral GD 0.5-GD 9.5, mean (SD)
# [7] = high Mg2+ (0.3%) soy diet, DTG 750 mg/kg/d oral GD 0.5-GD 9.5, mean (SD) per litter
# [8] = human, non-pregnant, 50 mg single dose, ref Min et al., 2010
# [9] = human, non-pregnant, 100 mg single dose, ref Min et al., 2010
# [10] = human, non-pregnant, 100 mg × 7d, ref Wang et al., 2019
# [11] = pregnant women, 2nd trimester, 50 mg/d, ref Mulligan et al., 2018
smiles,measurement,setting,value
"C[C@@H]1CCO[C@H]2Cn3cc(C(=O)NCc4ccc(F)cc4F)c(=O)c(O)c3C(=O)N12 [DTG, Dolutegravir]",Affected litters %,"C57BL/6J mice; high Mg2+ (0.3%) soy diet, DTG 750 mg/kg/d oral GD 0.5-GD 9.5",0.0%
same,"Dev delay/implants, index value",C57BL/6J mice; [5],1.9% (4.15)
same,"NTDs/embryos, index value",C57BL/6J mice; [5],0.0% (0.00)
same,"NTDs/implants, index value",C57BL/6J mice; [5],0.0% (0.00)
same,"Resorptions/implants, index value",C57BL/6J mice; [5],5.3% (9.30)
same,Implants per litter,C57BL/6J mice; [6],9.80 (1.48)
same,Resorptions per litter,C57BL/6J mice; [6],0.50 (0.85)
same,Dev. delayed,C57BL/6J mice; [7],0.20 (0.42)
same,NTDs,C57BL/6J mice; [7],0.00 (0.00)
same,Total viable embryos,C57BL/6J mice; [7],9.30 (1.77)
same,NTDs observed,"C57BL/6J mice; high Mg2+ soy diet, DTG750, n = 10 litters",No NTDs
same,AUC 0-24,[1]; [8],70.8 (50 mg single dose) ^1 µg*h/mL
same,Cmax,[1]; [8],4.6 (50 mg single dose) ^1 µg/mL
same,Tmax,[1]; [8],1.25 h (50 mg single dose) ^1
same,t½,[1]; [8],13–14 h (50 mg single dose) ^1
same,AUC 0-24,[1]; [9],131 (100 mg single dose) ^1 µg*h/mL
same,Cmax,[1]; [9],8.1 (100 mg single dose) ^1 µg/mL
same,AUC 0-24,[1]; [10],92.3 (100 mg × 7d) ^2 µg*h/mL
same,Cmax,[1]; [10],6.7 (100 mg × 7d) ^2 µg/mL
same,AUC 0-24,[1]; [11],"47.6 (33.4–63.7) (2nd trimester, 50 mg/d) ^3 µg*h/mL"
same,Cmax,[1]; [11],3.62 (2.57–4.63) µg/mL
same,Tmax,[1]; [11],"2 h (2nd trimester, 50 mg/d) ^3"
same,t½,[1]; [11],"11 h (2nd trimester, 50 mg/d) ^3"
same,developmental toxicity or NTDs,Whole rat embryos,no developmental toxicity or NTDs were observed
same,effect on inhibition of folate transport,[2],did not find a significant DTG or INSTI class effect
same,FOLR1-mediated uptake of folic acid,FOLR1 [3],partially inhibited
same,FOLR1-mediated uptake,FOLR1 [4],reduced
same,effect on 3D morphogenesis,hESC morphogenesis model,altered growth and expression of genes involved in body patterning
same,DTG-related maternal or developmental toxicity,"rats; oral doses up to 1000 mg/kg/d, GD 6 to GD 17, ref Stanislaus et al.",no significant evidence
same,NOAEL,"rats; preclinical studies, ref Stanislaus et al.",1000 mg/kg/day
